According to patent publication EP2181589A1, “Neurotoxic sterol glycosides” (Shaw, Christopher Ariel, priority 2008, dated 2010):
Marks after values point to notes of the source that are not given here.

Experiments:
[1] = tested on: Motor Neurons per lumbar cord section; test: Motor neuron counts, cresyl violet (Nissl) histology; assay type: in vivo, CD-1 mice
Protocol: (§1) The synthetic SG was mixed with finely ground Purina Chow mouse pellets (Mouse Diet™, Purina) to create the experimental pellets with a SG content of 1000 µg per pellet. Dry materials were blended with a sterile silicon spatula. For every 5 g of standard feed, 2.5 mL of doubly-distilled water (dd)H2O was added and the dough was kneaded and round up into pellets. A single sterol glucoside containing pellet was placed in the feeding tray each morning before the addition of regular mouse chow (ad libitum). All experimental pellets were entirely consumed by the mice each day. Control mice were fed standard mouse chow pellets of identical weight with no additives. SG feeding was conducted daily for 15 weeks and mice were behaviorally monitored until sacrifice at 35 weeks (time point 1) or 52 weeks (time point 2).
Mice were sacrificed for histological analysis at 35 weeks (35.9-48.6 g) and 52 weeks (41.2-51.4 g) of age. Age-matched control mice from each time point were included for comparison. The mice were deeply anaesthetized in a chamber with 4% isoflurane and perfused intracardially with filtered PBS (pH 7.4) until the effluent was cleared of blood (2 minutes), followed by perfusion with cold (4°C) 4% paraformaldehyde (PFA) in 0.1 M phosphate buffer (pH 7.4) for 5 minutes (30 mL). The PBS and the PFA were delivered through separate sterile platinum-cured silicon tubing (Cole-Parmer Canada Inc., Montreal, Canada) and peristaltic pumps (MasterFlex peristaltic pump, Cole-Parmer Canada Inc., Montreal, Canada). The brains and spinal cords were dissected out and fixed overnight at 4°C and equilibrated in increasing concentrations of sucrose in phosphate-buffered saline, pH 7.4 (10, 20, and 25%) over a 3-day period. Complete equilibration of the tissues was taken as the moment the tissues sank to the bottom of the scintillation tubes filled with 25% sucrose. After equilibration, the spinal cord and brain specimens were set in molds (Tissue-tek Cryomold, Sakura Finetek, USA, Torrance, CA) with an optimum cutting temperature (OCT) gel-sucrose mixture frozen by immersion in an isopentane (BDH Laboratory Supplies, UK) bath on dry ice and stored at -80°C until processing.
Cryosectioning of tissue: Frozen, coronal sections (spinal cord: 20 µm, brain: 30 µm) were cut with a Hacker-Bright cryostat (Hacker Instruments and Industries Inc., Winnsboro, SC) and mounted on charged glass slides (Superfrost Plus; Fisher Scientific, Pittsburgh, PA) so that adjacent CNS sections on each slide represented regions 100 µm and 150 µm apart for spinal cord and brain, respectively ((Tabata, Wilson et al. 2008)). The slides were stored at -80°C until histological processing. To ensure CNS sections were matched between animals, anatomical landmarks were verified using a mouse brain atlas (Paxinos and Franklin 2001).
Histology and quantification of motor neurons: Spinal cord and brain sections from each animal were stained for Nissl body substance. At room temperature (RT), sections were rinsed in a graded ethanol series (95%: 15 min; 70%: 1 min; 50%: 1 min) to rehydrate and remove lipids and fixation chemicals from the tissue. The tissue were then rinsed for 2 min in two exchanges of distilled water, stained with twice-filtered cresyl violet stain (1.25 g cresyl violet acetate, 0.75 mL glacial acetic acid to 250 mL distilled water), rinsed in distilled water (1 minute), and then dehydrated (50% ethanol: 1 minute; 1% glacial acetic acid-70% ethanol: 2 minutes; 95% ethanol: 2 minutes; 95% ethanol: 3 dips; 100% ethanol: 1 minute) and cleared in xylene. The slides were then cover-slipped in Entellen mountant (Merck, Darmstadt, Germany). The tissue mounted slides were selected with a randomized start and sampled starting from the lumbar 2 region to the 6th. […]

Lipid deposits = test: Oil red O histochemistry (lipid deposits); assay type: in vivo, CD-1 mice
Protocol: as §1
Tissue-mounted slides were processed to evaluate lipid distribution with light microscopy with a protocol adapted from Dr. Roy Ellis (IMVS Division of Pathology, The Queen Elizabeth Hospital, Woodville, South Australia). First, an oil red O stock solution was prepared 2 hours prior to execution of the histochemical procedures. The oil red O stock stain solution was made by mixing oil red O (0.5 g, Sigma-Aldrich, Oakville, ON, Canada) and isopropanol (100 mL, Fisher Scientific, Nepean, ON, Canada) over a 40°C water bath. Immediately prior to beginning the oil red O histochemical procedures, the oil red O working solution was made by combining 20 mL of distilled water for every 30 mL of oil red O stock stain solution. […] Slide-mounted sections were rinsed in coplin jars for 15 minutes at RT in three changes of PBS. Sections were then rinsed at RT with 60% isopropanol for 5 minutes. The spinal cord sections were then stained with a freshly prepared working solution of oil red O for 20 minutes and then rinsed with 60% isopropanol. Nuclear counterstaining was achieved by staining the sections with haematoxylin (haematoxylin, 7211, Richard Allan Scientific, Kalamazoo, MI, USA) for 1 minute. Finally, the sections were rinsed with distilled water, dried under a fume hood and cover-slipped with Entellen (Merck, Darmstadt, Germany).
The numbers of immunoreactive somata or inclusions were counted across the ventral horn of the spinal cord, across brain hemispheres, or per dorsal or ventral root with the 40x objective lens in a 600 µm / 600 µm area within region perimeters defined by a mouse brain atlas (2001). For each animal, eight cross-sections per spinal cord or brain region were studied. An average of both the right and left ventral horn for each of the eight cross sections was generated giving a final averaged number for each animal in each of the spinal cord areas. For quantification of the level of mitochondrial activity (cytochrome c oxidase labelling) in the lumbar spinal cord or tyrosine hydroxylase immunoreactivity in the substantia nigra pars compacta and striatal sections, images captured using the Motic B5 Professional Series 3.0 microscope (Motic Instruments Inc., Richmond, ON) and analyzed using Motic B5 Professional, Motic Images Advanced 3.0 (Motic Instruments Inc., Richmond, ON) were scanned into a TIFF format file and analysed using the NIH Image J 1.37 software to measure density levels of antibody labelling. Eight to 12 sections from each mouse per region of interest were included.

[2] = SG-fed vs control, time-point 1, 35 wk
[3] = SG-fed vs control, time-point 2, 52 wk
[4] = SG-group over time, 35 to 52 wk

For CCC(C=CC(C)C1CCC2C3CC=C4CC(OC5OC(CO)C(O)C(O)C5O)CCC4(C)C3CCC12C)C(C)C (centres unmarked) [SG], the “Chromatolytic α-MN” value [1, 2] was “Chromatolytic α-MN (ns)”, the “Healthy α-MN” value [1, 2] was “Healthy α-MN (ns)” and the “Pyknotic α-MN” value [1, 2] was “Pyknotic α-MN (ns)”. The “Total γ-MN” value [1, 2] was “Total γ-MN (ns)”, the “Chromatolytic α-MN” value [1, 3] was “Chromatolytic α-MN (ns)” and the “Pyknotic α-MN” value [1, 3] was “Pyknotic α-MN (ns)”. The “Total γ-MN” value [1, 3] was “Total γ-MN (ns)”, the “Total α-MN” value ([1]; SG-fed vs control, time-point 2, 52 wk, table cell prints no unit) was “Total α-MN: -47*” and the “Chromatolytic α-MN” value [1, 4] was “(control group & SG-group independently over time) (ns)”. For the same molecule, the “Pyknotic α-MN” value [1, 4] was “(control group and SG-group independently over time) (ns)”, the “Total γ-MN” value [1, 4] was “(control group and SG-group independently over time) (ns)” and the “accumulation of lipid deposits over time, lumbar spinal cord” value (Lipid deposits; SG-fed animals, 35 to 52 weeks) was “did not experience an accumulation of deposits over time”. For the same molecule, the “lipid deposits, time-dependent effects in the dorsal or ventral roots” value (Lipid deposits; SG-fed animals, 35 to 52 weeks) was “did not show time-dependent effects”, the “Lipid deposits, DR” value (Lipid deposits; SG-fed over time, 35 to 52 wk) was “SG-fed DR over time: ns, p=0.8062” and the “Lipid deposits, Lsc” value (Lipid deposits; SG-fed over time, 35 to 52 wk) was “SG-fed Lsc over time: ns, p=0.4864”. The “Lipid deposits, VR” value (Lipid deposits; SG-fed over time, 35 to 52 wk) was “SG-fed VR over time: ns, p=0.5478”, the “lipids in the dorsal roots” value (Lipid deposits; SG-fed vs control, 35 weeks) was “not significant” and the “lipids in the ventral spinal roots” value (Lipid deposits; SG-fed vs control, 35 weeks) was “+10%”. The “lipid deposits, inter-group differences in lumbar spinal cord, dorsal root, ventral root” value (Lipid deposits; SG-fed vs control, 52 weeks) was “statistically significant inter-group differences were not found” and the “Lipids deposits Lsc VH” value (Lipid deposits; [3]) was “Lipids deposits Lsc VH: +10%*”.
